From article PMC6315005, “5F-Cumyl-PINACA in ‘e-liquids’ for electronic cigarettes: comprehensive characterization of a new type of synthetic cannabinoid in a trendy product including investigations on the in vitro and in vivo phase I metabolism of 5F-Cumyl-PINACA and its non-fluorinated analog Cumyl-PINACA” (Forensic Toxicology, 2018)
Where two headings read alike, the source gives them in different places.

Legend:
CB1 receptors = tested on: CB1 receptors; parameters: method as in PMID 28792725; conditions: mouse AtT-20 neuroblastoma cells, membrane potential; cited from earlier work
CB2 receptors = tested on: CB2 receptors; parameters: method as in PMID 28792725; conditions: mouse AtT-20 neuroblastoma cells, membrane potential; cited from earlier work
CB1 receptor = tested on: CB1 receptor; parameters: method as in PMID 29367862; conditions: [35S]GTPγS binding; cited from earlier work
CB2 receptor = tested on: CB2 receptor; parameters: method as in PMID 29367862; conditions: [35S]GTPγS binding; cited from earlier work
[1] = Authentic urine sample, phase I metabolites of 5F-Cumyl-PINACA (LC-MS/MS); format: in vivo, human; conditions: for Urine [Peak area]: 5F-Cumyl-PINACA consumption
Experimental: (§1) The LC–MS/MS system used for the analysis of the urine and the pHLM assay samples consisted of a Nexera X2 UHPLC (Shimadzu) coupled to a QTRAP™ 5500 triple quadrupole linear ion trap instrument (SCIEX) equipped with the TurboIonSpray® probe. […] The total flow rate was 0.4 mL/min. The autosampler and the column oven temperatures were set to 10 and 40 °C, respectively.
(§2) The MRM ion transitions of the parent compounds were optimized carefully in positive ionization mode (see Supplementary Tables S1 and S2). Enhanced product ion (EPI) scan experiments were performed using hypothetical masses of anticipated phase I metabolites, and the obtained spectra were compared to the EPI spectrum of the respective parent compound. In order to detect unexpected metabolites not covered by the EPI scan approach, precursor ion scan experiments for the characteristic fragment ion at m/z 145 and for the m/z of its modified analogs 161 (monohydroxylation), 177 (dihydroxylation) and 179 (dihydrodiol) were conducted. The relative abundances of the characterized metabolites in the urine samples obtained during the self-administration study were compared using an MRM method comprising the most abundant ion transitions of each metabolite (see Supplementary Fig. S1 and Table S3).
The analysis of in vivo metabolism of 5F-Cumyl-PINACA in an authentic urine sample was conducted in accordance with the client’s inquest.
(§3) In order to cleave conjugates, 0.5 mL of an urine sample was incubated at 45 °C for 1 h after addition of 0.5 mL phosphate buffer (pH 6) and 30 µL β-glucuronidase. In a next step, 1.5 mL acetonitrile and 0.5 mL ammonium formate ([…]) were added. After shaking and centrifugation, 1 mL of the acetonitrile phase was transferred into a glass vial and evaporated to dryness under a gentle nitrogen stream at 40 °C. The residue was reconstituted in 200 µL mobile phase A/B (50:50, v/v) directly before LC–MS/MS analysis. Blank urine samples were prepared serving as negative controls.

[2] = Self-administration study, phase I metabolites of Cumyl-PINACA in urine (LC-MS/MS); format: in vivo, human; conditions: for peak area in urine: normalized to creatinine 100 mg/dL
Experimental: as §1, §2
To investigate the in vivo phase I metabolism of Cumyl-PINACA, one of the authors (75 kg person) ingested 0.6 mg Cumyl-PINACA orally. In addition to blank samples taken prior to ingestion, serum and urine samples were collected repeatedly over periods of 17 and 31 h after ingestion, respectively. All samples were stored at − 20 °C until analysis. In Germany, approval by an ethics committee is not required for scientific self-experiments.
as §3

[3] = tested on: pooled human liver microsomes (pHLM); experiment: Pooled human liver microsome assay (phase I metabolism); format: in vitro ADME; conditions: 60 min, 37 °C
Experimental: as §1, §2
To investigate the tentative phase I metabolism of Cumyl-PINACA and 5F-Cumyl-PINACA (extracted from e-liquids), in vitro experiments with pHLM were performed in triplicates. A 0.5-µL volume of a substrate solution ([…] in acetonitrile) was added to 49.5 µL of a reaction mixture consisting of 2.5 µL pHLM, 2.5 µL NADPH regenerating solution A, 0.5 µL NADPH regenerating solution B, 5.0 µL SOD, 10 µL 0.5 M phosphate buffer, and 29 µL deionized water. Incubation was performed for 60 min at 37 °C. The reaction was terminated by the addition of ice-cold acetonitrile, and the supernatant was analyzed after 1:10 dilution with mobile phase A/B (50:50, v/v). Blank pHLM samples were processed in the same way serving as negative controls.

[4] = Self-administration study, phase I metabolites of Cumyl-PINACA in urine (LC-MS/MS); format: in vivo, human; conditions: normalized to creatinine 100 mg/dL
CB1 = molecular target: T1, CB1 (Homo sapiens, UniProt P21554); experiment: cAMP biosensor assay with CB1 as target (DiscoveRx); format: cell-based; conditions: for Curve top: agonist format, 20 µM forskolin; for Emax: read-out: Maximum response (compared to CP-55,940)
T1 construct: purchased DiscoveRx (Fremont, CA, USA)
T1 sequence (P21554 whole entry): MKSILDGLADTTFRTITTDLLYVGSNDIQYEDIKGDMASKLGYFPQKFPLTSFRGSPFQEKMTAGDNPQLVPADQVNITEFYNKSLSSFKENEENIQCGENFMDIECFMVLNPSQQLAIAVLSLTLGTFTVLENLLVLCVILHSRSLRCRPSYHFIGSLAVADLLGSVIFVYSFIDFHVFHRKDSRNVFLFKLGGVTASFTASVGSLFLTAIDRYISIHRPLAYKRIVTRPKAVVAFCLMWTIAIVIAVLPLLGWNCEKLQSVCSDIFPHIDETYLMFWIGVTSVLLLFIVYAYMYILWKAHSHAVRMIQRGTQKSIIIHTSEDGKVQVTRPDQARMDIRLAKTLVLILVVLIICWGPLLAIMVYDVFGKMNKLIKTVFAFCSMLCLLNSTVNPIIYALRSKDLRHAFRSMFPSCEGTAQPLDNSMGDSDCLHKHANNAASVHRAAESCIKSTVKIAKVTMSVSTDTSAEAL
Experimental: Each compound was tested in duplicates; to induce response, 20 µM forskolin was used.

[5] = 6 h after 0.6 mg Cumyl-PINACA oral
[6] = 16 h after 0.6 mg Cumyl-PINACA oral
[7] = 20.3 h after 0.6 mg Cumyl-PINACA oral
[8] = 22.3 h after 0.6 mg Cumyl-PINACA oral
[9] = 26.3 h after 0.6 mg Cumyl-PINACA oral
[10] = 29.3 h after 0.6 mg Cumyl-PINACA oral
[11] = pHLM incubation of 5F-Cumyl-PINACA
[12] = pHLM incubation of Cumyl-PINACA
[13] = 37.2 h after 0.6 mg Cumyl-PINACA oral

CC(C)(NC(=O)c1nn(CC2CCCCC2)c2ccccc12)c1ccccc1
potency of CB1 receptor activation compared to CP-55,940 (CB1 receptors): greater potency than CP-55,940 | potency of CB2 receptor activation compared to CP-55,940 (CB2 receptors): greater potency than CP-55,940

CC(C)(NC(=O)c1cn(CCCCCF)c2ccccc12)c1ccccc1 [5F-Cumyl-PICA, reference compound]
potency of CB1 receptor activation compared to CP-55,940 (CB1 receptors): greater potency than CP-55,940 | CB1 activity compared to CP-55,940 (CB1 receptor): less activities as compared to CP-55,940 | potency of CB2 receptor activation compared to CP-55,940 (CB2 receptors): greater potency than CP-55,940 | CB2 activity compared to CP-55,940 (CB2 receptor): less activities as compared to CP-55,940

CC(C)(NC(=O)c1nn(CCCCCF)c2ccccc12)c1ccccc1 [5F-Cumyl-PINACA, 1-(5-fluoropentyl)-N-(2-phenylpropan-2-yl)-1H-indazole-3-carboxamide]
potency of CB1 receptor activation compared to CP-55,940 (CB1 receptors): greater potency than CP-55,940 | CB1 activity compared to CP-55,940 (CB1 receptor): less activities as compared to CP-55,940 | detection of parent compound in urine [1]: not detected | potency of CB2 receptor activation compared to CP-55,940 (CB2 receptors): greater potency than CP-55,940 | CB2 activity compared to CP-55,940 (CB2 receptor): less activities as compared to CP-55,940

CC(C)(NC(=O)c1nn(CCCCC(=O)O)c2ccccc12)c1ccccc1 [A07]
peak area in urine [2, 5]: 8.4E+04 | peak area in urine [2, 6]: 1.1E+05 | peak area in urine [2, 7]: 5.2E+04 | peak area in urine [2, 8]: 6.0E+04 | peak area in urine [2, 9]: 4.2E+04 | peak area in urine [2, 10]: 2.1E+04 | Urine [Peak area] [1]: 1.8E+05 | pHLM [Peak area] [3, 11]: 9.3E+06 | pHLM [Peak area] [3, 12]: 2.9E+06 | peak area in urine [4, 13]: 1.7E+04

CC(C)(NC(=O)c1nn(CCCCCO)c2ccccc12)c1ccccc1 [A08]
detectable in urine after self-administration ([2]; 0.6 mg Cumyl-PINACA oral): over 8 days | relative abundance in urine samples ([2]; 0.6 mg Cumyl-PINACA oral): most abundant metabolite in all analyzed urine samples | peak area in urine [2, 5]: 1.7E+07 | peak area in urine [2, 6]: 4.1E+06 | peak area in urine [2, 7]: 1.4E+06 | peak area in urine [2, 8]: 1.5E+06 | peak area in urine [2, 9]: 7.7E+05 | peak area in urine [2, 10]: 5.7E+05 | abundance in authentic urine sample [1]: high abundance | Urine [Peak area] [1]: 2.2E+05 | pHLM [Peak area] [3, 11]: 6.0E+07 | pHLM [Peak area] [3, 12]: 7.3E+07 | peak area in urine ([4]; 3.2 h after 0.6 mg Cumyl-PINACA oral): 1.1E+06 | peak area in urine [4, 13]: 4.5E+05 | peak area in urine ([4]; 39 h after 0.6 mg Cumyl-PINACA oral): 2.9E+05 | peak area in urine ([4]; 88.5 h after 0.6 mg Cumyl-PINACA oral): 2.6E+04 | peak area in urine ([4]; 110.3 h after 0.6 mg Cumyl-PINACA oral): 6.1E+04 | peak area in urine ([4]; 134 h after 0.6 mg Cumyl-PINACA oral): 2.7E+04 | peak area in urine ([4]; 157.5 h after 0.6 mg Cumyl-PINACA oral): 1.5E+04 | peak area in urine ([4]; 182.5 h after 0.6 mg Cumyl-PINACA oral): 1.3E+04 | peak area in urine ([4]; 205.5 h after 0.6 mg Cumyl-PINACA oral): 1.1E+04

CC(C)C(NC(=O)c1nn(Cc2ccc(F)cc2)c2ccccc12)C(N)=O (stereo not shown) [AB-FUBINACA]
EC50 (CB1): 0.89 nM | Curve top (CB1): 97.4 | Emax (CB1; control ligand CP-55,940): 97.8%

CCCCCn1nc(C(=O)NC(C(N)=O)C(C)C)c2ccccc21 (stereo not shown) [AB-PINACA]
EC50 (CB1): 1.74 nM | Curve top (CB1): 92.3 | Emax (CB1; control ligand CP-55,940): 95.3%

CC(C)C(NC(=O)c1nn(CC2CCCCC2)c2ccccc12)C(N)=O (stereo not shown) [AB-[…]]
EC50 (CB1): 0.28 nM | Curve top (CB1): 94.8 | Emax (CB1): 94.8%

O=C(c1cccc2ccccc12)c1cn(CCCCCF)c2ccccc12 [AM-2201]
EC50 (CB1): 0.45 nM | Curve top (CB1): 103 | Emax (CB1; control ligand CP-55,940): 101%

CC(C)(NC(=O)c1nn(CCCCCF)c2c1=CC(O)C(O)C=2)c1ccccc1 (stereo not shown) [B01]
Urine [Peak area] [1]: 5.6E+04 | pHLM [Peak area] [3, 11]: 7.0E+06

CCCCn1cc(C(=O)NC(C)(C)c2ccccc2)c2ccccc21 [Cumyl-BICA]
potency of CB1 receptor activation compared to CP-55,940 (CB1 receptors): greater potency than CP-55,940 | potency of CB2 receptor activation compared to CP-55,940 (CB2 receptors): greater potency than CP-55,940

CCCCn1nc(C(=O)NC(C)(C)c2ccccc2)c2ccccc21 [Cumyl-BINACA]
potency of CB1 receptor activation compared to CP-55,940 (CB1 receptors): greater potency than CP-55,940 | potency of CB2 receptor activation compared to CP-55,940 (CB2 receptors): greater potency than CP-55,940

CC(C)(NC(=O)c1cn(CC2CCCCC2)c2ccccc12)c1ccccc1 [Cumyl-CHMICA]
potency of CB1 receptor activation compared to CP-55,940 (CB1 receptors): greater potency than CP-55,940 | potency of CB2 receptor activation compared to CP-55,940 (CB2 receptors): greater potency than CP-55,940

CC(C)(NC(=O)c1nn(Cc2ccc(F)cc2)c2ccccc12)c1ccccc1 [Cumyl-FUBINACA]
potency of CB1 receptor activation compared to CP-55,940 (CB1 receptors): greater potency than CP-55,940 | potency of CB2 receptor activation compared to CP-55,940 (CB2 receptors): greater potency than CP-55,940

CCCCCn1cc(C(=O)NC(C)(C)c2ccccc2)c2ccccc21 [Cumyl-PICA, reference compound]
potency of CB1 receptor activation compared to CP-55,940 (CB1 receptors): greater potency than CP-55,940 | CB1 activity compared to CP-55,940 (CB1 receptor): less activities as compared to CP-55,940 | potency of CB2 receptor activation compared to CP-55,940 (CB2 receptors): greater potency than CP-55,940 | CB2 activity compared to CP-55,940 (CB2 receptor): less activities as compared to CP-55,940

CCCCCn1c2ccccc2c2cc(C(=O)c3cccc4ccccc34)ccc21 [EG-018]
Curve top (CB1): 74.3 | Emax (CB1; control ligand CP-55,940): 71.8%

CCCCCn1cc(C(=O)c2cccc3ccccc23)c2ccccc21 [JWH-018]
EC50 (CB1): 1.13 nM | Curve top (CB1): 97.6 | Emax (CB1; control ligand CP-55,940): 97.4%

COC(=O)C(NC(=O)c1cn(CC2CCCCC2)c2ccccc12)C(C)(C)C (stereo not shown) [MDMB-CHMICA]
EC50 (CB1): 0.14 nM | Curve top (CB1): 94.8 | Emax (CB1; control ligand CP-55,940): 94.6%

O=C(c1cccc2ccccc12)c1nn(CCCCCF)c2ccccc12 [THJ-2201]
EC50 (CB1): 1.68 nM | Curve top (CB1): 95.6 | Emax (CB1; control ligand CP-55,940): 91.9%
